Where two headings read alike, the source gives them in different places.
Key:
Assay in all cases: biochemical
Type in all cases: biochemical
[1] = target: panel of 391 kinases (Homo sapiens, UniProt Q9P1W9); conditions: PIM2, MK-28 1 µM, ATP 1 µM
[2] = target: panel of 391 kinases (Homo sapiens, UniProt P51957); conditions: NEK4, MK-28 1 µM, ATP 1 µM
[3] = target: panel of 391 kinases (Homo sapiens, UniProt Q15375); conditions: EPHA7, MK-28 1 µM, ATP 1 µM
[4] = target: panel of 391 kinases (Homo sapiens, UniProt P30530); conditions: AXL, MK-28 1 µM, ATP 1 µM
[5] = target: panel of 391 kinases (Homo sapiens, UniProt Q9HBY8); conditions: SGK2, MK-28 1 µM, ATP 1 µM
[6] = target: panel of 391 kinases (Homo sapiens, UniProt P15735); conditions: PHKg2, MK-28 1 µM, ATP 1 µM
[7] = target: panel of 391 kinases (Homo sapiens, UniProt Q00535); conditions: MK-28 1 µM, ATP 1 µM; for remaining activity at 1 µM: read-out: % Enzyme Activity (relative to DMSO controls)
[8] = target: panel of 391 kinases (Homo sapiens, UniProt Q9UM73); conditions: ALK, MK-28 1 µM, ATP 1 µM
[9] = target: panel of 391 kinases (Homo sapiens, UniProt Q9BXA7); conditions: STK22D/TSSK1, MK-28 1 µM, ATP 1 µM
[10] = target: panel of 391 kinases (Homo sapiens, UniProt Q8IU85); conditions: CAMK1d, MK-28 1 µM, ATP 1 µM
[11] = target: panel of 391 kinases (Homo sapiens, UniProt Q9H422); conditions: HIPK3, MK-28 1 µM, ATP 1 µM
[12] = target: panel of 391 kinases (Homo sapiens, UniProt P46734); conditions: MEK3, MK-28 1 µM, ATP 1 µM
[13] = target: panel of 391 kinases (Homo sapiens, UniProt Q13873); conditions: BMPR2, MK-28 1 µM, ATP 1 µM
[14] = target: panel of 391 kinases (Homo sapiens, UniProt Q13237); conditions: PKG2/PRKG2, MK-28 1 µM, ATP 1 µM
[15] = target: panel of 391 kinases (Homo sapiens, UniProt Q5TCX8); conditions: MLK4, MK-28 1 µM, ATP 1 µM
[16] = target: panel of 391 kinases (Homo sapiens, UniProt Q9UKE5); conditions: TNIK, MK-28 1 µM, ATP 1 µM
[17] = target: panel of 391 kinases (Homo sapiens, UniProt Q13043); conditions: MST1/STK4, MK-28 1 µM, ATP 1 µM
[18] = target: panel of 391 kinases (Homo sapiens, UniProt Q9Y3S1); conditions: WNK2, MK-28 1 µM, ATP 1 µM
[19] = target: panel of 391 kinases (Homo sapiens, UniProt P05771); conditions: PKCb1, MK-28 1 µM, ATP 1 µM
[20] = target: panel of 391 kinases (Homo sapiens, UniProt P36888); conditions: FLT3, MK-28 1 µM, ATP 1 µM
[21] = target: panel of 391 kinases (Homo sapiens, UniProt P53671); conditions: LIMK2, MK-28 1 µM, ATP 1 µM
[22] = target: panel of 391 kinases (Homo sapiens, UniProt P49674); conditions: CK1epsilon, MK-28 1 µM, ATP 1 µM
[23] = target: panel of 391 kinases (Homo sapiens, UniProt P07948); conditions: LYN, MK-28 1 µM, ATP 1 µM
[24] = target: panel of 391 kinases (Homo sapiens, UniProt Q15139); conditions: PKCmu/PRKD1, MK-28 1 µM, ATP 1 µM
[25] = target: panel of 391 kinases (Homo sapiens, UniProt Q5VT25); conditions: MRCKa/CDC42BPA, MK-28 1 µM, ATP 1 µM
[26] = target: panel of 391 kinases (Homo sapiens, UniProt P30291); conditions: WEE1, MK-28 1 µM, ATP 1 µM
[27] = read-out: % Enzyme Activity (relative to DMSO controls)

CN(/N=C\c1ccc(O)c(O)c1)c1nc(-c2ccccc2)cc(-c2ccccc2)n1 [MK-28]
% Enzyme Activity (relative to DMSO controls) [1]: 99.13%
remaining activity at 1 µM [1, 27]: 102%
% Enzyme Activity (relative to DMSO controls) [2]: 89.27%
remaining activity at 1 µM [2, 27]: 91.6%
% Enzyme Activity (relative to DMSO controls) [3]: 96.58%
remaining activity at 1 µM [3, 27]: 98.6%
% Enzyme Activity (relative to DMSO controls) [4]: 98.72%
remaining activity at 1 µM [4, 27]: 99.5%
% Enzyme Activity (relative to DMSO controls) [5]: 79.78%
remaining activity at 1 µM [5, 27]: 81.3%
% Enzyme Activity (relative to DMSO controls) [6]: 95.93%
remaining activity at 1 µM [6, 27]: 96.2%
% Enzyme Activity (relative to DMSO controls) ([7]; CDK5/p25): 93.55%
remaining activity at 1 µM ([7]; CDK5/p25): 93.6%
% Enzyme Activity (relative to DMSO controls) ([7]; CDK5/p35): 96.39%
remaining activity at 1 µM ([7]; CDK5/p35): 96.6%
% Enzyme Activity (relative to DMSO controls) [8]: 82.73%
remaining activity at 1 µM [8, 27]: 82.8%
% Enzyme Activity (relative to DMSO controls) [9]: 91.99%
remaining activity at 1 µM [9, 27]: 93.3%
% Enzyme Activity (relative to DMSO controls) [10]: 86.95%
remaining activity at 1 µM [10, 27]: 87.6%
% Enzyme Activity (relative to DMSO controls) [11]: 104.43%
remaining activity at 1 µM [11, 27]: 105%
% Enzyme Activity (relative to DMSO controls) [12]: 88.71%
remaining activity at 1 µM [12, 27]: 96.2%
% Enzyme Activity (relative to DMSO controls) [13]: 101.00%
remaining activity at 1 µM [13, 27]: 105%
% Enzyme Activity (relative to DMSO controls) [14]: 85.92%
remaining activity at 1 µM [14, 27]: 86%
% Enzyme Activity (relative to DMSO controls) [15]: 96.53%
remaining activity at 1 µM [15, 27]: 97.1%
% Enzyme Activity (relative to DMSO controls) [16]: 100.50%
remaining activity at 1 µM [16, 27]: 102%
% Enzyme Activity (relative to DMSO controls) [17]: 85.69%
remaining activity at 1 µM [17, 27]: 93.7%
% Enzyme Activity (relative to DMSO controls) [18]: 89.30%
remaining activity at 1 µM [18, 27]: 90.7%
% Enzyme Activity (relative to DMSO controls) [19]: 108.67%
remaining activity at 1 µM [19, 27]: 111%
% Enzyme Activity (relative to DMSO controls) [20]: 95.61%
remaining activity at 1 µM [20, 27]: 95.6%
% Enzyme Activity (relative to DMSO controls) [21]: 94.92%
remaining activity at 1 µM [21, 27]: 95.4%
% Enzyme Activity (relative to DMSO controls) [22]: 82.77%
remaining activity at 1 µM [22, 27]: 83.4%
% Enzyme Activity (relative to DMSO controls) [23]: 96.29%
remaining activity at 1 µM [23, 27]: 96.5%
% Enzyme Activity (relative to DMSO controls) [24]: 94.26%
remaining activity at 1 µM [24, 27]: 95.3%
% Enzyme Activity (relative to DMSO controls) [25]: 93.74%
remaining activity at 1 µM [25, 27]: 95.3%
% Enzyme Activity (relative to DMSO controls) [26]: 112.80%
remaining activity at 1 µM [26, 27]: 114%
